Results on eight compounds are retold here after ChEMBL document CHEMBL3352017, “2-Guanidinoquinazolines as new inhibitors of the STAT3 pathway” (Bioorg Med Chem Lett, 2014).

The nature of assay [1]: Selectivity index, ratio of IC50 for IFNgamma-induced STAT1 pathway in human Cal33 cells to IC50 for IL-6-induced STAT3 pathway in human Cal33 cells. Format: cell-based. The note with it: CAL-33.
Assay [2] can be described thus: cells. The note with it: Homo sapiens.
Description: Growth inhibition of human 686LN cells
Assay [3] in a line: cells. The note with it: Homo sapiens, OSC19.
Description: Growth inhibition of human OSC19 cells
Assay [4] is described as follows: cells. The note with it: Homo sapiens, CAL-33.
Description: Growth inhibition of human CAL33 cells
A further assay has as its system FaDu. Kind of assay: cells. The note with it: Homo sapiens.
In assay [5] the target is Tyrosine-protein kinase JAK1 (Homo sapiens) (UniProt P23458). Kind of assay: Inhibition of JAK1 phosphorylation in human Cal33 cells by Western blot analysis. Format: cell-based. The note with it: CAL-33. In general terms: Immunoblotting shows a protein as a band on a membrane.
Assay [6] has as its target Tyrosine-protein kinase JAK2 (Homo sapiens) (UniProt O60674). Kind of assay: Inhibition of JAK2 phosphorylation in human Cal33 cells by Western blot analysis. The note with it: CAL-33. Format: cell-based.
Assay [7] concerns the target T1, Signal transducer and activator of transcription 1-alpha/beta (Homo sapiens) (UniProt P42224).
T1 sequence (whole entry): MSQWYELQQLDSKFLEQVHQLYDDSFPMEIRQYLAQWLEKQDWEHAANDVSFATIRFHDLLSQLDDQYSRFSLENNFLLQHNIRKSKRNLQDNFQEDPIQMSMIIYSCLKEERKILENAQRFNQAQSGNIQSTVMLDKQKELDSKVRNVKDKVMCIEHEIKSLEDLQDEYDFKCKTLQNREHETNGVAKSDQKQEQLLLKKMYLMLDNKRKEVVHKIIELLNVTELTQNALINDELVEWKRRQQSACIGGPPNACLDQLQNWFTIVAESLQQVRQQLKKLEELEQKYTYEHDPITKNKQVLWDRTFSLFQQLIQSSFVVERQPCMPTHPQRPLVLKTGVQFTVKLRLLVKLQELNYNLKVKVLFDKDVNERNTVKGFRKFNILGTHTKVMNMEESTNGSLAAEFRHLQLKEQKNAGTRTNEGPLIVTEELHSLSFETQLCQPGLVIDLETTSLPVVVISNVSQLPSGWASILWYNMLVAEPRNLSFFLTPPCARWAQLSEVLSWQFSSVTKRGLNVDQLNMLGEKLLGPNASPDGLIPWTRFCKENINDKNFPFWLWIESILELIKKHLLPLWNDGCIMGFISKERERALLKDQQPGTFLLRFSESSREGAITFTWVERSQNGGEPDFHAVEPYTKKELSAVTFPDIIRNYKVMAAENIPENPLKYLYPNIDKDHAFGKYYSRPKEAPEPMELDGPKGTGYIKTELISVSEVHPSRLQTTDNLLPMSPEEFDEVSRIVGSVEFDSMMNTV
Kind of assay: Inhibition of IFNgamma-induced STAT1 pathway in human Cal33 cells at 50 uM. Format: cell-based. The note with it: CAL-33.

Molecules are shown by their SMILES. Active and inactive are the calls of the source. The rule behind the calls is not given here.

Tyrosine-protein kinase JAK1 (Homo sapiens), sequence (P23458 whole entry): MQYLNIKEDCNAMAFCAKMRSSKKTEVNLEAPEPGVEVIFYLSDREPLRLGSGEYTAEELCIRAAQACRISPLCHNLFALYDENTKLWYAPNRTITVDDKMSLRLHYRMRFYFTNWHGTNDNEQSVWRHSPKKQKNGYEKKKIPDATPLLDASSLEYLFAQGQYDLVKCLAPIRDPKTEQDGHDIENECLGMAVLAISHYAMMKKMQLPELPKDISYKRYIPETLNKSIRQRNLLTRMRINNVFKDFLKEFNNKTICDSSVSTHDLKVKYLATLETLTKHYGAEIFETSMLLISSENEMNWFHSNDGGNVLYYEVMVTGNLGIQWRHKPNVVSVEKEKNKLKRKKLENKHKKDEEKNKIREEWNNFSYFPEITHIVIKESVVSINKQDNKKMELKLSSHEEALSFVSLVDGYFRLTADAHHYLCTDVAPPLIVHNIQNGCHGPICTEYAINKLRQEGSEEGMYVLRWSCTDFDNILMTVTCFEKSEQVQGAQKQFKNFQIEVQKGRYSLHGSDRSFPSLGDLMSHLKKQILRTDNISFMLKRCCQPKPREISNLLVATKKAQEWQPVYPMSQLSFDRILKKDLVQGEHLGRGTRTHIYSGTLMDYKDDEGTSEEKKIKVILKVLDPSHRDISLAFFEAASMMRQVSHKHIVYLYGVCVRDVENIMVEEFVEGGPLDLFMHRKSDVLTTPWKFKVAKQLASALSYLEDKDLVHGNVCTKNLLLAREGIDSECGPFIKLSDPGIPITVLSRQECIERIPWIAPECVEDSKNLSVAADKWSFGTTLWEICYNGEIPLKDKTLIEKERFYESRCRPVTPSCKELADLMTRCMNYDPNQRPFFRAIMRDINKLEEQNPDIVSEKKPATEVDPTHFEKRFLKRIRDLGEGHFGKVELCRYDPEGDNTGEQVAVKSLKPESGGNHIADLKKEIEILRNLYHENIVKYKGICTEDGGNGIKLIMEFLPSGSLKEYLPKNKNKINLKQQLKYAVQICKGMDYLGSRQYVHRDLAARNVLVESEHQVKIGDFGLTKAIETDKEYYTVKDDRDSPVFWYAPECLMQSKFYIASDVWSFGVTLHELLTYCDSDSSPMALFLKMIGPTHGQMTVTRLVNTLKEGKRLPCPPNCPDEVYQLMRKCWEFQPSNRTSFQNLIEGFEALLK
Tyrosine-protein kinase JAK2 (Homo sapiens), sequence (O60674 whole entry): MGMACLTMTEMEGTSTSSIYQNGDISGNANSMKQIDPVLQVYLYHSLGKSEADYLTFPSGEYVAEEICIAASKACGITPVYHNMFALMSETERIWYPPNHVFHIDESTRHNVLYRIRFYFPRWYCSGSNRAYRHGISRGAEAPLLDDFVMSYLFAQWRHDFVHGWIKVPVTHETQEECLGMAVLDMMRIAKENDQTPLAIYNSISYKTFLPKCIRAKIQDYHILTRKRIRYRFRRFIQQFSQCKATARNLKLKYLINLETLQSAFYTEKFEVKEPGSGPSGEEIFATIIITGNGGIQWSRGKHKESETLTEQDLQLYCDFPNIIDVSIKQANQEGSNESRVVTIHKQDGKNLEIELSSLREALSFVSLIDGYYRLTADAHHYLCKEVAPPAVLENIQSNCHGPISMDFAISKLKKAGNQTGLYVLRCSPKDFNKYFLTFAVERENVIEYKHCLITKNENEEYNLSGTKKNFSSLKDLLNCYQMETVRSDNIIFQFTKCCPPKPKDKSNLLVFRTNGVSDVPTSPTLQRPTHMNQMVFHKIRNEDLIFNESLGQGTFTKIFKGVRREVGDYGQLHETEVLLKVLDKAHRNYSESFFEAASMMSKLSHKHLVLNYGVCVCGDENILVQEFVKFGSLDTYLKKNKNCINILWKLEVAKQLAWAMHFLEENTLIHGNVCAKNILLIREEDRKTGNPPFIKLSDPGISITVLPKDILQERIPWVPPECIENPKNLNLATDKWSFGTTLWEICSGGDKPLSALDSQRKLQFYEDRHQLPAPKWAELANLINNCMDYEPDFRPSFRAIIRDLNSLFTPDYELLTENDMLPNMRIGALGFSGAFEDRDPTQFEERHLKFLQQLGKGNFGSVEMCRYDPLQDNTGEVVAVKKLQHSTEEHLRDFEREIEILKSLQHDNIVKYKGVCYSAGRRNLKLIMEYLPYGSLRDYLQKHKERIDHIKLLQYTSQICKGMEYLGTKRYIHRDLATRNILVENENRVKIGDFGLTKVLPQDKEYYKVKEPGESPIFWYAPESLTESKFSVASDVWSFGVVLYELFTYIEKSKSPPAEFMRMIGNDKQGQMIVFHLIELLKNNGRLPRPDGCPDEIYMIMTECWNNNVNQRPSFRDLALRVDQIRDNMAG
Description for FaDu: Growth inhibition of human FADU cells

With `COc1ccc2nc(Nc3nc(=O)cc(C)[nH]3)nc(C)c2c1`, the Ratio IC50 in assay [1] is above 1.

As usually defined, the IC50 is the midpoint of a concentration-inhibition curve. Turning to `CCOc1ccc2nc(Nc3nc(=O)cc(-c4ccccc4)[nH]3)nc(C)c2c1`, the values for the half-inhibitory concentration (IC50) in the assay “cells [2]” and in “cells [3]” were 37.8 µM and 19 µM, respectively.

In the case of `Cc1cc2nc(Nc3nc(=O)c(C)c(C)[nH]3)nc(C)c2cc1C`, the Ratio IC50 in assay [1] is above 4.

On to `CC1=CC(C)(C)N=C(Nc2nc(C)c3cc(C)cc(C)c3n2)N1`, for which the IC50 in “cells [4]” is 1.2 µM; in the assay “cells [2]” it was 2.4 µM; in the assay on FaDu, 1.9 µM; in the assay “cells [3]”, 3.2 µM.

Regarding `Cc1cc(C)c2nc(Nc3nc(C)c(C)c(O)n3)nc(C)c2c1`, the Ratio IC50 in assay [1] is above 7.

On to `CC1=CC(C)(C)N=C(Nc2nc(C)c3cc(C)ccc3n2)N1`, for which the IC50 in the assay “cells [2]” was found to be 49.3 µM; in “cells [3]” it was 12.8 µM.

For the compound `CCOc1ccc2nc(NC3=NC(C)=CC(C)(C)N3)nc(C)c2c1`, the half-inhibitory concentration (IC50) in “cells [4]” stood at 29.4 µM; in the assay “cells [2]” it was 37.5 µM; with FaDu, 18.8 µM; in “cells [3]” it was 17 µM. Besides, the inhibition result in assay [5], in assay [6] and in assay [7] was “inactive” each time.

Take `Cc1nc(Nc2nc(=O)cc(-c3ccccc3)[nH]2)nc2cc3c(cc12)OCO3`: the Ratio IC50 in assay [1] was above 3.
